In patent US20110178104A1, “Anti-Heparin Compounds” (POLYMEDIX INC., priority 2010, published 2011):
pEC50: −log10 of the molar value. Values after ≈ are worked out from the molar mass of the structure shown. Values joined by “and” are separate entries in the source; they are usually repeats but may differ in a detail not shown here. Equal values may be shown once. Read-outs that look alike come from different tables or passages of the source. Starred links: 1 amine or outer side, 2 acyl side, 3 side chain; linkers in the order of their positions; H or OH if unused. Non-standard residues stand in square brackets, D forms with d. Residues, ends and D or L forms follow the SMILES beside them. *: point of attachment. NH(3-CONH2-4-OMe-phenyl) = COc1ccc(N*)cc1C(N)=O; 3Abz(6-OMe) = COc1ccc(N[*:1])cc1C(=O)[*:2]; X1 = O=C(O)COc1ccc(N[*:1])cc1C(=O)[*:2]

Columns and labels:
[1] = tested on: isolated human erythrocytes; test: cells; type: cell-based; conditions: Homo sapiens, Erythrocyte, 1 h, read-out: Hemolysis EC50
Method: Hemolysis assay: Cytotoxicity was also evaluated in a hemolysis assay using isolated human erythrocytes. Pooled whole human blood was centrifuged to separate the red blood cells (RBC). The isolated RBCs were rinsed and diluted in Tris-buffered saline (TBS buffer, pH 7.4) to obtain a 0.22% RBC stock suspension. Serial two-fold dilutions of test agent were assayed over a concentration range of 1000 to 0.48 μg/ml with shaking for 1 hour at 37° C. At the conclusion of the incubation time, samples were centrifuged and 30 μl of the supernatant was added to 100 μl H2O. OD405 measurements were read for hemoglobin concentration. The bee venom peptide melittin was used as a positive control. EC50 values were determined using a four parameter logistic equation: Y=Bottom+(Top-Bottom)/(1+10̂((LogEC50-X)*HillSlope)).

[2] = Cytotoxicity colorimetric assay, HepG2; type: cell-based, human; conditions: human, HepG2 cells, one hour in serum-free media
Method: This assay measures the bioreduction of a novel tetrazolium compound to a soluble formazan product by viable cells. HepG2 cells were seeded in 96 well plates at 3×10^4 cells/well in MEM medium with 10% fetal bovine serum (FBS) 24 hours prior to use. NIH/3T3 cells were seeded in 96 well plates at 2×10^4 cells/well in DMEM medium with 10% bovine calf serum (BCS) 24 hours prior to use. Cell monolayers were rinsed in serum-free media and incubated for one hour with test agent in serum-free media. After incubation, the media was replaced with serum supplemented media and live cells were measured using the Cell Titer 96 Aqueous […] Assay kit (Promega, Madison, Wis.). EC50 values were determined using a four parameter logistic equation: Y=Bottom+(Top-Bottom)/(1+10̂((LogEC50-X)*HillSlope)).

Unfractionated heparin = test: aPTT clotting assay, UFH 0.4 U/mL in plasma (Example 10); type: biochemical; conditions: unfractionated heparin 0.4 U/mL in plasma; aPTT clotting
Method: aPTT clotting Assay: Unfractionated heparin was mixed with plasma at a final concentration of 0.4 U/mL (or concentration which increases aPTT time to between 120 and 300 seconds). […] The ACL Elite Hemostasis analyzer (Beckman Coulter™) was used to add aPTT reagent (HemosIL SynthASil) to supplemented plasma. Clotting was initiated by addition of CaCl2 and time to clot was recorded.

enoxaparin = test: FXa amidolytic assay (Example 10), enoxaparin; conditions: read-out: Enox FXa EC50; enoxaparin 0.1 ug/ml; human antithrombin, bovine Factor Xa
tinzaparin = test: FXa amidolytic assay (Example 10), tinzaparin; conditions: read-out: Tinzap FXa EC50; tinzaparin 0.1 ug/ml; human antithrombin, bovine Factor Xa
fondaparinux = test: FXa amidolytic assay (Example 10), fondaparinux; conditions: read-out: Fondap FXa EC50; fondaparinux 0.02 μg/mL; human antithrombin, bovine Factor Xa
UFH = test: FXa amidolytic assay (Example 10), UFH; conditions: read-out: Heparin FXa uM EC50; UFH 0.03 units/mL; human antithrombin, bovine Factor Xa

Structure (SMILES)	pEC50 (Unfractionated heparin)	pEC50 (enoxaparin)	pEC50 (tinzaparin)	pEC50 (fondaparinux)	EC50 (UFH) [µM]	EC50 ([1]; human RBC, 1 hour at 37° C.) [µg/mL]	EC50 at 1 h [2] [µg/mL]	EC50 [1] [µg/mL]
COc1ccc(NC(=O)[C@@H](CCCNC(N)=O)NC(=O)c2cc(NC(=O)[C@@H](CCCNC(N)=O)NC(=O)c3cc(NC(=O)[C@@H](CCCNC(=N)N)NC(=O)c4cc(NC(C)=O)ccc4OC)ccc3OC)ccc2OCC(=O)O)cc1C(=O)N[C@H](Cc1c[nH]c2ccccc12)C(N)=O [Compound 333]	< 5.00	< 5.30	< 5.30	< 5.30	> 5	1000 (≈ 737 µM)	–	–
COc1ccc(NC(=O)[C@H](CCCCN)NC(=O)c2cc(NC(=O)[C@H](CCCCN)NC(=O)c3cc(NC(=O)[C@H](CCCCN)NC(=O)c4cc(NC(=O)[C@H](CCCCN)NC(=O)[C@@H](N)Cc5c[nH]c6ccccc56)ccc4OC)ccc3OC)ccc2OC)cc1C(N)=O [Compound 351] (H-WK[3Abz(6-OMe)]K[3Abz(6-OMe)]K[3Abz(6-OMe)]K-{NH(3-CONH2-4-OMe-phenyl)})	5.71	6.67	6.94	5.96	0.194	> 1000	–	–
COc1ccc(NC(=O)[C@H](CCCCN)NC(=O)c2cc(NC(=O)[C@H](CCCCN)NC(=O)c3cc(NC(=O)[C@H](CCCCN)NC(=O)c4cc(NC(=O)[C@H](CCCCN)NC(=O)Cc5ccccc5)ccc4OC)ccc3OC)ccc2OCC(=O)O)cc1C(N)=O [Compound 356]	5.72	6.90	7.00	6.29	0.204	–	–	> 1000
COc1ccc(NC(=O)[C@@H](CCCNC(N)=O)NC(=O)c2cc(NC(=O)[C@@H](CCCNC(N)=O)NC(=O)c3cc(NC(=O)[C@@H](CCCNC(=N)N)NC(=O)c4cc(NC(=O)[C@H](N)CCCNC(=N)N)ccc4OC)ccc3OC)ccc2OC)cc1C(N)=O [Compound 375]	5.57	6.95	7.12	5.90	0.681	–	–	–

Second part, led by results:

pEC50 (Unfractionated heparin)	pEC50 (enoxaparin)	pEC50 (tinzaparin)	pEC50 (fondaparinux)	EC50 (UFH) [µM]	Structure (SMILES)	EC50 ([1]; human RBC, 1 hour at 37° C.) [µg/mL]	EC50 at 1 h [2] [µg/mL]	EC50 [1] [µg/mL]
5.73 and 5.64	6.67 and 6.68	6.78 and 6.79	6.23 and 6.49	–	COc1ccc(NC(=O)[C@@H](CCCNC(=N)N)NC(=O)c2cc(NC(=O)[C@@H](CCCNC(=N)N)NC(=O)c3cc(NC(=O)[C@@H](CCCNC(=N)N)NC(=O)c4cc(NC(C)=O)ccc4OC)ccc3OC)ccc2OC)cc1C(N)=O [Compound 229]	~500 (≈ 445 µM)	> 1000	–
< 5.00	6.92	6.85	7.01	0.242	COc1ccc(NC(=O)[C@H](CCCNC(=N)N)NC(=O)c2cc(NC(=O)[C@H](CCCNC(=N)N)NC(=O)c3cc(NC(=O)[C@H](CCCNC(=N)N)NC(=O)c4cc(NC(C)=O)ccc4OC)ccc3OC)ccc2OC)cc1C(=O)N[C@@H](Cc1c[nH]c2ccccc12)C(=O)O [Compound 310]	~1000 (≈ 763 µM)	–	–
< 5.00	< 5.30	< 5.30	< 5.30	> 5	COc1ccc(NC(=O)[C@@H](CCCNC(N)=O)NC(=O)c2cc(NC(=O)[C@@H](CCCNC(=N)N)NC(=O)c3cc(NC(=O)[C@@H](CCCNC(=N)N)NC(=O)c4cc(NC(C)=O)ccc4OC)ccc3OC)ccc2OCC(=O)O)cc1C(=O)N[C@H](Cc1c[nH]c2ccccc12)C(N)=O [Compound 332]	1000 (≈ 738 µM)	–	–
5.85	6.61	6.93	5.65	0.187	COc1ccc(NC(=O)[C@H](CCCCN)NC(=O)c2cc(NC(=O)[C@H](CCCCN)NC(=O)c3cc(NC(=O)[C@H](CCCCN)NC(=O)c4cc(NC(=O)[C@H](CCCCN)NC(=O)[C@@H](N)Cc5ccccc5)ccc4OC)ccc3OC)ccc2OC)cc1C(N)=O [Compound 357] (H-FK[3Abz(6-OMe)]K[3Abz(6-OMe)]K[3Abz(6-OMe)]K-{NH(3-CONH2-4-OMe-phenyl)})	> 1000	–	–
5.71	6.49	6.74	5.80	0.314	COc1ccc(NC(=O)[C@H](CCCCN)NC(=O)c2cc(NC(=O)[C@H](CCCCN)NC(=O)c3cc(NC(=O)[C@H](CCCCN)NC(=O)c4cc(NC(=O)[C@H](CCCCN)NC(=O)[C@@H](N)Cc5ccccc5)ccc4OC)ccc3OC)ccc2OCC(=O)O)cc1C(N)=O [Compound 358] (H-FK[3Abz(6-OMe)]K[3Abz(6-OMe)]K[X1]K-{NH(3-CONH2-4-OMe-phenyl)})	> 1000	–	–
5.62	6.80	6.94	5.74	0.677	COc1ccc(NC(=O)[C@@H](CCCNC(=N)N)NC(=O)c2cc(NC(=O)[C@@H](CCCNC(=N)N)NC(=O)c3cc(NC(=O)[C@@H](CCCNC(N)=O)NC(=O)c4cc(NC(=O)[C@H](N)CCCNC(N)=O)ccc4OC)ccc3OC)ccc2OC)cc1C(N)=O [Compound 374]	–	–	–
